How the values were obtained:
Settings in all cases: 72 h
[1] = test system: Caco-2; experiment: cell viability relative to DMSO; higher = less toxic
[2] = test system: Calu-3; experiment: as above
[3] = test system: HepG2; experiment: as above
[4] = test system: U2OS; experiment: as above
[5] = test system: Vero E6; experiment: as above
[6] = test system: Caco-2; experiment: relative viability EC50 (midpoint between 100% and the lowest measured viability); higher = less toxic
[7] = test system: Calu-3; experiment: as above
[8] = test system: HepG2; experiment: as above
[9] = test system: U2OS; experiment: as above
[10] = test system: Vero E6; experiment: as above
[11] = test system: Caco-2; experiment: drug sensitivity score (DSS) for viability; higher = more toxic; extreme values may be limits of the assay
[12] = test system: Calu-3; experiment: as above
[13] = test system: HepG2; experiment: as above
[14] = test system: U2OS; experiment: as above
[15] = test system: Vero E6; experiment: as above

Row | SMILES | cell viability ([1]; 1 nM) [%] | cell viability ([1]; 10 nM) [%] | cell viability ([1]; 100 nM) [%] | cell viability ([1]; 1000 nM) [%] | cell viability ([1]; 10000 nM) [%] | cell viability ([2]; 1 nM) [%] | cell viability ([2]; 10 nM) [%] | cell viability ([2]; 100 nM) [%] | cell viability ([2]; 1000 nM) [%] | cell viability ([2]; 10000 nM) [%] | cell viability ([3]; 1 nM) [%] | cell viability ([3]; 10 nM) [%] | cell viability ([3]; 100 nM) [%] | cell viability ([3]; 1000 nM) [%] | cell viability ([3]; 10000 nM) [%] | cell viability ([4]; 1 nM) [%] | cell viability ([4]; 10 nM) [%] | cell viability ([4]; 100 nM) [%] | cell viability ([4]; 1000 nM) [%] | cell viability ([4]; 10000 nM) [%] | cell viability ([5]; 1 nM) [%] | cell viability ([5]; 10 nM) [%] | cell viability ([5]; 100 nM) [%] | cell viability ([5]; 1000 nM) [%] | cell viability ([5]; 10000 nM) [%] | relative viability EC50 [6] [µM] | relative viability EC50 [7] [µM] | relative viability EC50 [8] [µM] | relative viability EC50 [9] [µM] | relative viability EC50 [10] [µM] | drug sensitivity score [11] | drug sensitivity score [12] | drug sensitivity score [13] | drug sensitivity score [14] | drug sensitivity score [15]
1 | CNC(=O)CN(CCN(CCN(CC(=O)[O-])CC(=O)NC)CC(=O)[O-])CC(=O)[O-].[Gd+3] [gadodiamide] | 92.9 | 98.9 | 90.9 | 91.1 | 103 | 115 | 96.9 | 105 | 98.8 | 108 | 96.6 | 102 | 108 | 98.6 | 93.1 | 103 | 102 | 96.6 | 98.3 | 98.1 | 97.6 | 101 | 98.5 | 97.9 | 94.3 | > 10 | > 10 | > 10 | > 10 | > 10 | 0 | 0 | 0 | 0 | 0
2 | Cc1ccc(Cl)c(OCC(O)CNC(C)(C)C)c1 (stereo not given) [bupranolol] | 109 | 89 | 91.5 | 99.5 | 107 | 98.2 | 99.8 | 93.6 | 105 | 104 | 99.3 | 97.6 | 104 | 97.8 | 94.6 | 101 | 98.1 | 99.6 | 101 | 104 | 93.6 | 97.5 | 97.2 | 100 | 103 | > 10 | > 10 | > 10 | > 10 | > 10 | 0 | 0 | 0 | 0 | 0
3 | Cc1[nH]c2ccc(F)cc2c1-c1nc2c3cccnc3c3ncccc3c2[nH]1 [APTO-253] | 95.9 | 100 | 94.7 | 88.3 | 90.3 | 111 | 93.9 | 95.2 | 36.6 | 5.3 | 93.2 | 97.2 | 96.7 | 92.1 | 42 | 96.7 | 96.6 | 97.9 | 80.1 | 27.4 | 96.2 | 94.6 | 94 | 95.9 | 86.9 | > 10 | 0.639 | 2.07 | 1.47 | > 10 | 0.6 | 13 | 4.5 | 7 | 0
4 | C=CC(=O)Nc1cccc(Nc2nc(Nc3ccc(NC4CN(CCF)C4)cc3OC)ncc2C(F)(F)F)c1 [CNX-2006] | 105 | 100 | 99.1 | 83.7 | 38.3 | 96.2 | 99.4 | 77.9 | 44.4 | 10 | 99.9 | 110 | 97.3 | 102 | 27.6 | 102 | 98.7 | 98.8 | 92.7 | 37.2 | 102 | 102 | 101 | 88.7 | 26.7 | 1.51 | 0.464 | 3.34 | 2.21 | 1.97 | 5.9 | 13.3 | 3.8 | 4.7 | 5.9
5 | COc1cccc(OC)c1C(=O)N[C@@H]1C(=O)N2[C@@H]1SC(C)(C)[C@@H]2C(=O)O [methicillin] | 95.2 | 97.2 | 101 | 91.4 | 96.5 | 105 | 99.1 | 97 | 99.1 | 102 | 96 | 96.1 | 87 | 106 | 107 | 105 | 94.7 | 99.6 | 99 | 99.8 | 107 | 98.6 | 94.9 | 102 | 87.9 | > 10 | > 10 | > 10 | > 10 | > 10 | 0 | 0 | 0 | 0 | 0
6 | Fc1ccc(C(c2ccccc2)(c2ccccc2F)n2ccnc2)cc1 (stereo not given) [flutrimazole] | 122 | 112 | 96.1 | 98.9 | 80.5 | 102 | 92 | 107 | 90.4 | 106 | 106 | 110 | 95.7 | 96.5 | 97.7 | 108 | 107 | 107 | 102 | 97.1 | 97 | 102 | 108 | 118 | 99.2 | > 10 | > 10 | > 10 | > 10 | > 10 | 0.7 | 0 | 0 | 0 | 0

Reference: the supplement of paper PMC13380429
